Data from patent EP1344776A1, “5- 2-hydroxy-3-[1-(3-trifluoromethylphenyl)-cyclopropyl]-propionylamino -phtalide and 6- 2-hydroxy-3-[1-(3-trifluoromethylphenyl)-cyclopropyl]-propionylamino -4-methyl-2,3-benzoxazin-1-one derivatives with progesterone receptor modulating activity for use in fertility control, hormone replacement …” (Schering Aktiengesellschaft, priority 2002, dated 2003).

How the values were obtained:
rat mammary epithelium = experiment: Bioassay on proliferating/differentiating effects in the rat mammary epithelium (whole mount staining); format: in vivo
Experimental: The object of this test is to evaluate the effect of progestins on the development of the mammary gland, in particular on the formation of terminal end buds in the mammary gland in estrogen primed rats.
Premature female rats (Wistar Han, SPF) are ovariectomized at the age of 21 days, 4 to 6 days before treatment start. The animals are treated for 6 days with standard estrogen (estrone, 70 µg/kg) and the test progestin (application volume: 0.1 ml/50g body weight; vehicle: benzylbenzoate/castor oil (1+4 v/v); subcutaneous). Control groups are e.g.: vehicle, estrone without progestin, estradiol together with a known progestin, e.g. R5020 (promegestone). After the 6-day treatment the animals are killed with carbon dioxide.
For the whole mount staining, animals are shaved in the left abdominal inguinal mammary region, which is cut from the body together with the skin. For the histological/immunohistochemical analyses the right abdominal inguinal mammary gland is cut from the body together with the connective tissue adhered thereto and fixed in 3.7 % formalin in PBS (phosphate buffer saline; without Ca^2+/Mg^2+).
The preparations are fixed over night in alcohol-formalin according to the method of Tellyesniczky (see below). Then the mammary gland tissue and subcutis adhered thereto are stripped from the cutis and the preparations are again fixed over night. The further steps are as follows: ethanol 70 %: 1.5 hours; acetone: 3 × 1.5 hours; acetone: over night; isopropanol: 1.5 hours; ethanol 96 %: 2 hours; hematoxylin-iron: 3 hours; VE water: first rinse the preparations and then 2 × 0.5 hours; ethanol 70 %: over night; ethanol 80 %: 1.5 hours; ethanol 96 %: 1.5 hours; isopropanol: 1.5 hours. The preparations are then moved to petri dishes and left in toluene for approximately 1 hour, i.e. until they have stopped to swim up. Then the preparations are treated with cedarwood oil (Merck, no. 1.06965). The incubation times above are minimum times and can be extended. In particular, incubation in ethanol 70 % after fixation can be extended to at least 2.5 weeks.
Preparation of the solutions necessary for the whole mount staining: • a) Alcohol-formalin according to Tellyesniczky: formaldehyde 37%: 81.8 ml, ethanol 70 %: 1636 ml, glacial acetic acid (to be added shortly before use): 81.8 ml (total: 1800 ml). • b) Hematoxylin mother solution: Hematoxylin (Merck, no. 1.15938): 10 g, ethanol 96 %: 100 ml. The solution must stand for 48 hours at 37 °C before use. It can be kept in a dark place for almost unlimited time. • c) Hematoxylin-iron solution for use: hematoxylin mother solution (filtered): 15.2 ml, ethanol 96 %: 1374 ml, FeCl3 x 6 H2O (s. 4): 91.1 ml, 1 mol/l HCl: 220 ml (total: 1700 ml); adjustment to a pH of 1.25 with 2mol/l NaOH. • d) FeCl3 x 6 H2O solution: FeCl3 x 6 H2O (Merck, no. 1.03943): 1.07 g, VE water: 90.2 ml, HCl: 37 %: 0.92 ml (total: 91.1 ml).
By means of a 40-fold magnification, the terminal end buds near the nipple in direction of the tail are counted. The area to be investigated should be about 1.8 mm^2. For well-differentiated preparations this area may be reduced, with at least 250 buds to be counted. After counting, the number of end buds per 1 mm^2 is calculated. […]

[1] = test system: Pregnant rats (Wistar Han, SPF); experiment: Pregnancy maintenance test in rat; format: in vivo
Description: In rats, castration induces termination of pregnancy. Progestins (combined with estrogens) are capable of maintaining pregnancy in castrated animals. However, the degree of pregnancy maintenance in castrated rats is optimal only in a defined dose range. Therefore, higher as well as lower doses generally induce a weaker effect. Accompanying treatment with defined doses of estrone (E1) increases the pregnancy maintaining effect of progestins.
Pregnant rats (Wistar Han, SPF) of 190 to 220 g (5 to 8 animals per dose) are ovariectomized on day 8 of pregnancy, 2 hours after the first substance administration. From day 8 to day 14, rats are daily treated with test progestin in combination with a standard dose of E1. One day later, animals are killed with carbon dioxide. For each animal, the number of living and dead fetuses is determined according to the heartbeat of the embryos. In case of empty uteri, the number of implantation sites is determined by means of staining with a 10 % ammonium sulfide solution.
S.c. (subcutaneous) application: The test progestin is dissolved in benzyl benzoate/castor oil (1+4 v/v), and the daily dose is administered in a volume of 1 ml/kg body weight.
P.o. (peroral) application: The test progestin is suspended in a carrier liquid (85 mg Myrj^R in 100 ml 0.9 % w/v NaCl solution), and the daily dose is administered in a volume of 2 ml/kg body weight.
I.p. (intraperitoneal) application: The test progestin is dissolved in propylene glycol and charged in miniature osmotic pumps (type 2001, 1.0 µl/h, 7 days), which are placed in the abdominal cavity of the rat.
The standard dose of estrone is 0.005 mg/kg body weight s.c. and is dissolved in benzyl benzoate/castor oil ([…]).
It is determined the pregnancy maintenance per animal [%], the pregnancy maintenance per dose (median of single values) and the ED50 (dose, at which pregnancy is maintained in 50 % of the animals; 100 % corresponds to control animals that are not ovariectomized).

[2] = biological target: T1, estrogen receptor-α (ERα) (Homo sapiens, UniProt P03372); experiment: Estrogen receptor-α binding; conditions: in vitro
T1 sequence (P03372 1-595): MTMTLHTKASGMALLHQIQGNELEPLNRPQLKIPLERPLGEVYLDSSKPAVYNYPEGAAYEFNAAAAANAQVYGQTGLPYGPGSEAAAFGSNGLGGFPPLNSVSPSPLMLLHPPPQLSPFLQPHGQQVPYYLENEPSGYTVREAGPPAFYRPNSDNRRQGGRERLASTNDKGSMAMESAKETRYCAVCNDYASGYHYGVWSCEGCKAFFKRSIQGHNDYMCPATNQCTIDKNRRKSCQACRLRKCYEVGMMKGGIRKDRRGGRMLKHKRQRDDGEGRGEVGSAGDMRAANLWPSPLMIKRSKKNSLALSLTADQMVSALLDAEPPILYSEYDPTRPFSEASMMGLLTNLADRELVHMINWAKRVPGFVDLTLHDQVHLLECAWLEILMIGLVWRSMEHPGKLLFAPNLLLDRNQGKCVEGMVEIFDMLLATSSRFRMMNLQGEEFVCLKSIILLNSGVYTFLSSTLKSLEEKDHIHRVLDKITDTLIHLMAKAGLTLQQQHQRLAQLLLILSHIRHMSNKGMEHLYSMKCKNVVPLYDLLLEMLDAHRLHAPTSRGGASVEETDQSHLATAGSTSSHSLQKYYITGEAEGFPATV

O=C1OCc2cc(NC(=O)C(O)(CC3(c4cc(C(F)(F)F)ccc4F)CC3)C(F)(F)F)ccc21 (single isomer, unassigned; (+)) [((+)-1), (+)-5-{2-hydroxy-3-[1-(2-fluoro-5-trifluoromethylphenyl)-cyclopropyl]-2-trifluoromethyl-propionylamino}-phthalide]
Mammary gland, whole mount staining (rat) [equi-efficient dose], factor compared to R5020 (rat mammary epithelium; median of three independent tests): ca. 1
effects at the mammary gland (rat mammary epithelium; rat, amount suitable for maintaining pregnancy): no effects at the mammary gland are observed
Mammary gland, whole mount staining (rat) [equi-efficient dose] (rat mammary epithelium; terminal end buds, dose pair with 0.1 mg/kg R5020, independent test): 0.03 mg/kg
Maintenance of pregnancy (rat) [ED50] ([1]; ovariectomized pregnant rats, with estrone): 0.012 mg/kg
potency compared to levonorgestrel (LNG), pregnancy maintenance test ([1]; rat, times more potent than LNG): about 10
androgenic activity in pregnancy maintenance test ([1]; rats, dose 100 times higher than the dose required for maintaining pregnancy): no androgenic activity
affinity for the estrogen receptor-α (ERα) [2]: negligible
